Toxic doses and inconclusive results are not listed. How the source made its calls: active means survival T/C of 150% or more; inactive means T/C below 125% in these data.
Test system: P388 leukemia ip, CD2F1 mice, survival T/C
Assay: NCI In Vivo Anticancer Drug Screen. Data for tumor model P388 Leukemia (intraperitoneal) in CD2F1 (CDF1) mice
Settings: endpoint: median survival time, higher = longer survival
Summary of the method: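 Mice carrying the transplanted tumor received test compound or vehicle. Survival was recorded in each group, and the value is the treated-group measurement divided by that of the vehicle-treated control group.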

[1] = dose: 50.0 mg/kg/injection, schedule: Q01DX009 (ip), vehicle: saline with Tween-80
[2] = dose: 100.0 mg/kg/injection, schedule: Q01DX009 (ip), vehicle: saline with Tween-80
[3] = dose: 200.0 mg/kg/injection, schedule: Q01DX009 (ip), vehicle: saline with Tween-80

Measured: T/C

C=C(CN(C)C)C(=O)c1ccc(C(=O)C(=C)CN(C)C)cc1
inactive: dose: 0.78 mg/kg/injection, schedule: Q01DX005 (ip), vehicle: saline 105 % of control | dose: 1.56 mg/kg/injection, schedule: Q01DX005 (ip), vehicle: saline 107 % of control | dose: 3.12 mg/kg/injection, schedule: Q01DX005 (ip), vehicle: saline 108 % of control

Cc1cc(N2CCN(c3cc(C)c4ccccc4n3)CC2)nc2ccccc12
inactive: [1] 100 % of control | [2] 95 % of control | [3] 100 % of control

CN1c2ccccc2C(=O)Nc2cnc(Cl)nc21
inactive: dose: 25.0 mg/kg/injection, schedule: Q01DX005 (ip), vehicle: Klucel (hydroxypropylcellulose) (HPC) 94 % of control | dose: 50.0 mg/kg/injection, schedule: Q01DX005 (ip), vehicle: Klucel (hydroxypropylcellulose) (HPC) 108 % of control

Cc1cccc2c1NC(O)c1cccn1C2=O (stereo not given)
inactive: dose: 0.1 mg/kg/injection, schedule: Q01DX005 (ip), vehicle: water 98 % of control | dose: 0.2 mg/kg/injection, schedule: Q01DX005 (ip), vehicle: water 93 % of control | dose: 0.4 mg/kg/injection, schedule: Q01DX005 (ip), vehicle: water 93 % of control | dose: 0.8 mg/kg/injection, schedule: Q01DX005 (ip), vehicle: water 98 % of control | dose: 1.6 mg/kg/injection, schedule: Q01DX005 (ip), vehicle: water 93 % of control | dose: 5.0 mg/kg/injection, schedule: Q01DX005 (ip), vehicle: distilled water + Tween-80 103 % of control | dose: 10.0 mg/kg/injection, schedule: Q01DX005 (ip), vehicle: distilled water + Tween-80 94 % of control | dose: 20.0 mg/kg/injection, schedule: Q01DX005 (ip), vehicle: distilled water + Tween-80 98 % of control | dose: 40.0 mg/kg/injection, schedule: Q01DX005 (ip), vehicle: distilled water + Tween-80 95 % of control | dose: 80.0 mg/kg/injection, schedule: Q01DX005 (ip), vehicle: distilled water + Tween-80 94 % of control

N#Cc1ccc(NN=NCCCCCl)cc1
inactive: dose: 3.12 mg/kg/injection, schedule: Q01DX005 (ip), vehicle: distilled water + Tween-80 94 % of control | dose: 6.25 mg/kg/injection, schedule: Q01DX005 (ip), vehicle: distilled water + Tween-80 88 % of control | dose: 12.5 mg/kg/injection, schedule: Q01DX005 (ip), vehicle: distilled water + Tween-80 91 % of control | dose: 25.0 mg/kg/injection, schedule: Q01DX005 (ip), vehicle: distilled water + Tween-80 94 % of control | dose: 50.0 mg/kg/injection, schedule: Q01DX005 (ip), vehicle: distilled water + Tween-80 105 % of control

COC(=O)c1ccccc1NC(c1ccccn1)c1ccc2cccnc2c1O (stereo not given)
inactive: dose: 50.0 mg/kg/injection, schedule: Q01DX009 (ip), vehicle: DMSO 111 % of control | dose: 50.0 mg/kg/injection, schedule: Q01DX009 (ip), vehicle: Klucel (hydroxypropylcellulose) (HPC) 109 % of control | dose: 100.0 mg/kg/injection, schedule: Q01DX009 (ip), vehicle: DMSO 116 % of control | dose: 100.0 mg/kg/injection, schedule: Q01DX009 (ip), vehicle: Klucel (hydroxypropylcellulose) (HPC) 94 % of control | dose: 200.0 mg/kg/injection, schedule: Q01DX009 (ip), vehicle: Klucel (hydroxypropylcellulose) (HPC) 106 % of control | dose: 400.0 mg/kg/injection, schedule: Q01DX009 (ip), vehicle: Klucel (hydroxypropylcellulose) (HPC) 100 % of control

N#CC1OC(COC(=O)c2ccccc2)C(OC(=O)c2ccccc2)C1OC(=O)c1ccccc1 (stereo not given)
inactive: dose: 12.5 mg/kg/injection, schedule: Q01DX009 (ip), vehicle: distilled water + Tween-80 90 % of control | dose: 25.0 mg/kg/injection, schedule: Q01DX009 (ip), vehicle: distilled water + Tween-80 89 % of control | dose: 50.0 mg/kg/injection, schedule: Q01DX009 (ip), vehicle: distilled water + Tween-80 88 % of control | [1] 99 % of control | dose: 100.0 mg/kg/injection, schedule: Q01DX009 (ip), vehicle: distilled water + Tween-80 98 % of control | [2] 94 % of control | dose: 200.0 mg/kg/injection, schedule: Q01DX009 (ip), vehicle: distilled water + Tween-80 101 % of control | [3] 94 % of control

C=CCCC(=O)CCCC(=O)O[C@@H]1[C@@H]2[C@H](CC1(C)C)[C@H](O)[C@@]13O[C@@H]1[C@H](O)[C@@]1(CO1)[C@@]23C
inactive: dose: 6.2 micrograms/kg/injection, schedule: Q01DX009 (ip), vehicle: saline + alcohol 98 % of control | dose: 6.3 micrograms/kg/injection, schedule: Q01DX009 (ip), vehicle: Klucel (hydroxypropylcellulose) (HPC) 110 % of control | dose: 12.5 micrograms/kg/injection, schedule: Q01DX009 (ip), vehicle: Klucel (hydroxypropylcellulose) (HPC) 110 % of control | dose: 12.5 micrograms/kg/injection, schedule: Q01DX009 (ip), vehicle: saline + alcohol 101 % of control | dose: 25.0 micrograms/kg/injection, schedule: Q01DX005 (ip), vehicle: Klucel (hydroxypropylcellulose) (HPC) 100 % of control | dose: 25.0 micrograms/kg/injection, schedule: Q01DX009 (ip), vehicle: Klucel (hydroxypropylcellulose) (HPC) 100 % of control | dose: 25.0 micrograms/kg/injection, schedule: Q01DX009 (ip), vehicle: saline + alcohol 98 % of control | dose: 50.0 micrograms/kg/injection, schedule: Q01DX005 (ip), vehicle: Klucel (hydroxypropylcellulose) (HPC) 101 % of control | dose: 50.0 micrograms/kg/injection, schedule: Q01DX009 (ip), vehicle: Klucel (hydroxypropylcellulose) (HPC) 98 % of control | dose: 50.0 micrograms/kg/injection, schedule: Q01DX009 (ip), vehicle: saline + alcohol 97 % of control | dose: 100.0 micrograms/kg/injection, schedule: Q01DX005 (ip), vehicle: Klucel (hydroxypropylcellulose) (HPC) 99 % of control | dose: 200.0 micrograms/kg/injection, schedule: Q01DX005 (ip), vehicle: Klucel (hydroxypropylcellulose) (HPC) 100 % of control | dose: 400.0 micrograms/kg/injection, schedule: Q01DX005 (ip), vehicle: Klucel (hydroxypropylcellulose) (HPC) 111 % of control

Cc1ccc(S(=O)(=O)N/N=C/C(N)=O)cc1
inactive: dose: 12.5 mg/kg/injection, schedule: Q01DX009 (ip), vehicle: other 101 % of control | dose: 25.0 mg/kg/injection, schedule: Q01DX009 (ip), vehicle: other 101 % of control | dose: 50.0 mg/kg/injection, schedule: Q01DX009 (ip), vehicle: other 96 % of control | dose: 100.0 mg/kg/injection, schedule: Q01DX009 (ip), vehicle: other 104 % of control | dose: 200.0 mg/kg/injection, schedule: Q01DX009 (ip), vehicle: other 118 % of control | dose: 400.0 mg/kg/injection, schedule: Q01DX009 (ip), vehicle: other 101 % of control

CCOP(=O)(/C=C1/C(=O)OCC1(C)C)OCC
inactive: dose: 100.0 mg/kg/injection, schedule: Q04DX003 (ip), vehicle: saline 100 % of control | dose: 200.0 mg/kg/injection, schedule: Q04DX003 (ip), vehicle: saline 101 % of control | dose: 400.0 mg/kg/injection, schedule: Q04DX003 (ip), vehicle: saline 104 % of control

COc1ccc(CCN2CCC(CC3CCCCN3)CC2)cc1OC (stereo not given)
inactive: dose: 12.5 mg/kg/injection, schedule: Q01DX009 (ip), vehicle: distilled water + alcohol 103 % of control | dose: 25.0 mg/kg/injection, schedule: Q01DX009 (ip), vehicle: distilled water + alcohol 112 % of control | dose: 50.0 mg/kg/injection, schedule: Q01DX009 (ip), vehicle: distilled water + alcohol 105 % of control | dose: 100.0 mg/kg/injection, schedule: Q01DX009 (ip), vehicle: distilled water + alcohol 103 % of control

Cc1cc(C)nc(/N=C/c2ccccc2O)c1
inactive: dose: 50.0 mg/kg/injection, schedule: Q01DX009 (ip), vehicle: saline 98 % of control | dose: 100.0 mg/kg/injection, schedule: Q01DX009 (ip), vehicle: saline 88 % of control | dose: 200.0 mg/kg/injection, schedule: Q01DX009 (ip), vehicle: saline 91 % of control

Clc1ccc(Oc2ccc(N3C=Nc4ccc(Oc5ccc(Cl)cc5)cc4C3)cc2)cc1
inactive: [2] 110 % of control | [3] 100 % of control | dose: 400.0 mg/kg/injection, schedule: Q01DX009 (ip), vehicle: saline with Tween-80 115 % of control

O=c1[nH]cnc2ccc3cn[nH]c3c12
inactive: dose: 50.0 mg/kg/injection, schedule: Q01DX005 (ip), vehicle: saline with Tween-80 100 % of control | dose: 100.0 mg/kg/injection, schedule: Q01DX005 (ip), vehicle: saline with Tween-80 105 % of control | dose: 200.0 mg/kg/injection, schedule: Q01DX005 (ip), vehicle: saline with Tween-80 106 % of control

CC1c2ccoc2CC2C1C(O)C(O)C1C(C)(C)CCCC21C (stereo not given)
inactive: dose: 100.0 mg/kg/injection, schedule: Q04DX002 (ip), vehicle: suspension in saline 106 % of control | dose: 200.0 mg/kg/injection, schedule: Q04DX002 (ip), vehicle: suspension in saline 106 % of control | dose: 400.0 mg/kg/injection, schedule: Q04DX002 (ip), vehicle: suspension in saline 98 % of control

Reference: PubChem BioAssay AID330 (DTP/NCI, 2004)
